In test [1] the test system is isolated mouse ventricular myocytes. Particulars: cited from earlier work.
For test [2], the system named is left anterior descending coronary artery ligation. Particulars: mice, left anterior descending coronary arteries ligated; cited from earlier work.
Test [3] deals with cGMP-hydrolytic activity in preparations from mouse left ventricles. Description: cGMP-hydrolytic activity in preparations from mouse left ventricle (total activity). As to conditions: 0.1 μM cGMP.
Procedure: (§1) Measurements were made in the presence and absence of calcium and calmodulin as described in Vandeput et al 2009. All measurements were made at a cGMP concentration of 0.1 μM. ‘Ca^2+-independent activity’ refers to activity measured in the absence of calcium and calmodulin; this includes PDE5 activity and unstimulated PDE1 activity. ‘Ca^2+-dependent activity’ refers to activity measured in the presence of calcium and calmodulin minus activity measured in their absence (i.e., minus Ca^2+-independent activity); this activity is comprised solely of Ca^2+/calmodulin-stimulated PDE1 activity.
(§2) The effects of sildenafil on cGMP-hydrolytic activity in preparations from normal (pre-diseased) and diseased mouse left ventricle were then examined [Vandeput 2009].
In test [4] the test system is doxorubicin toxicity. As to conditions: mouse model of doxorubicin toxicity; cited from earlier work.
The subject of test [5] is isoproterenol-induced cardiac hypertrophy. Particulars: rats, cited from earlier work.
The subject of test [6] is hypertrophy following aortic constriction. Particulars: mice; cited from earlier work.
Test [7] deals with ischemic injury. Particulars: rabbit model; cited from earlier work.
The test system of test [8] is ischemic injury. Particulars: mouse model; cited from earlier work.
For test [9], the system named is PDE1. The experiment in a line: cGMP-hydrolytic activity in mouse left ventricle preparations, Ca2+-dependent (Ca2+/calmodulin-stimulated) activity (PDE1).
Procedure: as §1, §2
For test [10], the system named is PDE1. Description: cAMP-hydrolytic activity in preparations from normal and infarcted mouse hearts. Particulars: 1 μM (1000 nM) sildenafil.
The test system of test [11] is PDE5. As to conditions: 1 μM (1000 nM) sildenafil; mouse left ventricle; 0.1 μM cGMP.
Procedure: as §1, §2
For test [12], the system named is cGMP-hydrolytic activity in preparations from human left ventricles (PDE1). Description: cGMP-hydrolytic activity in preparations from human left ventricles. Type of test: biochemical. Particulars: human left ventricle, 0.1 μM cGMP. As to the method:
Similar studies were carried out in preparation from human myocardium [Vandeput 2009]. […] From this it was inferred that PDE1 inhibition can have cardioprotective and other beneficial effects in human myocardium.

Entries after “also recorded” stand apart in the source; their conditions may differ. Where two headings read alike, the source gives them in different places.

With `CCCc1nn(C)c2c(=O)[nH]c(-c3cc(S(=O)(=O)N4CCN(C)CC4)ccc3OCC)nc12` [sildenafil], the “apoptotic consequences of hypoxia” value in [1] is on record as “protects against”. In addition, the apoptosis and survival entry in test [2] was “anti-apoptotic and survival benefits”. Besides, the “inhibition of cGMP-hydrolytic activity” value in test [3] (10 nM sildenafil, normal (pre-diseased) and diseased mouse left ventricle) is given as “some inhibition”; in test [3] (1 μM sildenafil, compared with 10 nM, normal and diseased mouse left ventricle), “Inhibition was greater”; in [12] (10 nM sildenafil), “no inhibition of cGMP-hydrolytic activity could be detected”; in test [12] (1 μM (1000 nM) sildenafil), “significant inhibition; also recorded: profound”. In addition, in [4], the apoptosis entry was “anti-apoptotic effects”. In addition, in test [4], the “development of contractile dysfunction” value is listed as “protect against the development of contractile dysfunction”. The survival result in [5] (isoproterenol-induced cardiac hypertrophy) is on record as “increase in survival”. In addition, the “development of isoproterenol-induced cardiac hypertrophy” value in test [5] is reported as “block the development”. Also, the “development of hypertrophy following aortic constriction” value in test [6] is “blocks and reverses”. Moreover, the “infarct size following ischemic injury” value in test [7] and in [8] was “reduces infarct size” in each case. The “inhibition of PDE1 (cGMP hydrolysis)” value in test [9] (10 nM sildenafil, 0.1 μM cGMP) is recorded as “not PDE1”. For the same compound, the “inhibition of PDE1 (cGMP hydrolysis, Ca2+/calmodulin-stimulated activity)” value in [9] (1 μM (1000 nM) sildenafil, 0.1 μM cGMP) was “inhibiting both PDE5 and PDE1; also recorded: inhibits PDE1 activity”. The “magnitude of inhibition attributable to PDE1 relative to that attributable to PDE5” value in test [9] (1 μM sildenafil, cGMP hydrolysis) is on record as “much greater magnitude”. Besides, the “inhibition of cAMP-hydrolytic activity” value in test [10] (normal and infarcted mouse hearts, absence of calcium and calmodulin) is given as “inhibits cAMP-hydrolytic activity; also recorded: significantly inhibits”. Also, in [10] (presence of calcium and calmodulin, compared with their absence), the “relative inhibition of cAMP-hydrolytic activity” value is reported as “of greater magnitude”. Also, in [11], the “inhibition of PDE5 (cGMP hydrolysis)” value is “inhibiting both PDE5 and PDE1”.

Values taken from US20120070443A1, “PDE1 AS A TARGET THERAPEUTIC IN HEART DISEASE” (UNIVERSITY OF UTAH RESEARCH FOUNDATION, priority 2008, published 2012).
